Measurements: publication PMC12281424, “A Rac-specific competitive inhibitor of guanine nucleotide binding reduces metastasis in triple-negative breast cancer” (Cell Reports Medicine, 2025)

How the values were obtained:
White blood cell formula = format: in vivo, mouse
From the text: Data S6. Formule white blood cell (% of leukocytes) in control and A41-treated mice (25
Control (n=5) A41 (n=5) p value

Cannabinoid CB1 = Cannabinoid CB1 (Homo sapiens, UniProt P21554); test: Safety screen; format: binding
GABAB1A = GABAB1A (Homo sapiens, UniProt Q9UBS5); test: Safety screen; format: binding
Description: (§1) Blood cell counts, kinase profiler, safety screen, bacterial cytotoxicity, Ames, micronucleus assays were performed by the company Eurofins (France).

[1] = test system: Glutamate, NMDA, Polyamine; test: Safety screen; format: binding, rat
Description: (§2) Blood cell counts, kinase profiler, safety screen, bacterial cytotoxicity, Ames, micronucleus assays were performed by the company Eurofins (France). The kinase profiler was performed by the company Eurofins (Discovery, Panlab and Cerep).

[2] = molecular target: Leukotriene, Cysteinyl CysLT1 (Homo sapiens, UniProt Q9Y271); test: Safety screen; format: binding
Description: as §1

Transporter, GABA = test: Safety screen; format: binding, rat
Description: as §1

[3] = molecular target: Transporter, Norepinephrine (NET) (Homo sapiens, UniProt P23975); test: Safety screen; format: binding
Description: as §1

ARK5(h) = ARK5(h) (Homo sapiens, UniProt O60285); test: Kinase Profiler; format: biochemical
ARK5(h), sequence (O60285 whole entry): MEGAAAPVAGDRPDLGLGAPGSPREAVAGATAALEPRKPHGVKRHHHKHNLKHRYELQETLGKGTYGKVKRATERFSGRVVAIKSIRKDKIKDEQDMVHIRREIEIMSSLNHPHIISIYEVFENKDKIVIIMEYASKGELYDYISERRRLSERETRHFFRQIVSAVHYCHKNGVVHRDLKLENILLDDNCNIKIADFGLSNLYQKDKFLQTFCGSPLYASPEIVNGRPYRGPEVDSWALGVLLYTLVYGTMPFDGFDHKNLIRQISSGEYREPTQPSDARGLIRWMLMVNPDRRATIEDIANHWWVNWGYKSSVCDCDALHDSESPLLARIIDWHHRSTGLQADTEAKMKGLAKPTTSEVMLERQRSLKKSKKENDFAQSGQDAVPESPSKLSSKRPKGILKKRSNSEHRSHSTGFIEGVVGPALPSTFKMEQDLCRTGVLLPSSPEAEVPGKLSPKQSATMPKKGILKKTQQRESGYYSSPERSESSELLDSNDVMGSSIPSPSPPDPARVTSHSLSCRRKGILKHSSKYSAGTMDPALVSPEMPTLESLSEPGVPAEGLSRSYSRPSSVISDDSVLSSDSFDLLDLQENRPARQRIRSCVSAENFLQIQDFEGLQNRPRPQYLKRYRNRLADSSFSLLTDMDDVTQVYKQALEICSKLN
Description: as §2

Bmx(h) = Bmx(h) (Homo sapiens, UniProt P51813); test: Kinase Profiler; format: biochemical
Description: as §2

BrSK1(h) = BrSK1(h) (Homo sapiens, UniProt Q8TDC3); test: Kinase Profiler; format: biochemical
Description: as §2

CaMKK1(h) = CaMKK1(h) (Homo sapiens, UniProt Q8N5S9); test: Kinase Profiler; format: biochemical
Description: (§3) The kinase profiler was performed by the company Eurofins (Discovery, Panlab and Cerep).

Cdc7/cyclinB1(h) = Cdc7/cyclinB1(h) (Homo sapiens, UniProt O00311); test: Kinase Profiler; format: biochemical
Description: as §3

CLIK1(h) = CLIK1(h) (Homo sapiens, UniProt Q8TDR2); test: Kinase Profiler; format: biochemical
Description: as §3

DYRK1A(h) = DYRK1A(h) (Homo sapiens, UniProt Q13627); test: Kinase Profiler; format: biochemical
Description: as §2

GSK3α(h) = GSK3α(h) (Homo sapiens, UniProt P49840); test: Kinase Profiler; format: biochemical
Description: as §2

Haspin(h) = Haspin(h) (Homo sapiens, UniProt Q8TF76); test: Kinase Profiler; format: biochemical
Description: as §3

HIPK2(h) = HIPK2(h) (Homo sapiens, UniProt Q9H2X6); test: Kinase Profiler; format: biochemical
Description: as §3

Itk(h) = Itk(h) (Homo sapiens, UniProt Q08881); test: Kinase Profiler; format: biochemical
Description: as §3

KDR(h) = KDR(h) (Homo sapiens, UniProt P35968); test: Kinase Profiler; format: biochemical
KDR(h), sequence (P35968 20-1356): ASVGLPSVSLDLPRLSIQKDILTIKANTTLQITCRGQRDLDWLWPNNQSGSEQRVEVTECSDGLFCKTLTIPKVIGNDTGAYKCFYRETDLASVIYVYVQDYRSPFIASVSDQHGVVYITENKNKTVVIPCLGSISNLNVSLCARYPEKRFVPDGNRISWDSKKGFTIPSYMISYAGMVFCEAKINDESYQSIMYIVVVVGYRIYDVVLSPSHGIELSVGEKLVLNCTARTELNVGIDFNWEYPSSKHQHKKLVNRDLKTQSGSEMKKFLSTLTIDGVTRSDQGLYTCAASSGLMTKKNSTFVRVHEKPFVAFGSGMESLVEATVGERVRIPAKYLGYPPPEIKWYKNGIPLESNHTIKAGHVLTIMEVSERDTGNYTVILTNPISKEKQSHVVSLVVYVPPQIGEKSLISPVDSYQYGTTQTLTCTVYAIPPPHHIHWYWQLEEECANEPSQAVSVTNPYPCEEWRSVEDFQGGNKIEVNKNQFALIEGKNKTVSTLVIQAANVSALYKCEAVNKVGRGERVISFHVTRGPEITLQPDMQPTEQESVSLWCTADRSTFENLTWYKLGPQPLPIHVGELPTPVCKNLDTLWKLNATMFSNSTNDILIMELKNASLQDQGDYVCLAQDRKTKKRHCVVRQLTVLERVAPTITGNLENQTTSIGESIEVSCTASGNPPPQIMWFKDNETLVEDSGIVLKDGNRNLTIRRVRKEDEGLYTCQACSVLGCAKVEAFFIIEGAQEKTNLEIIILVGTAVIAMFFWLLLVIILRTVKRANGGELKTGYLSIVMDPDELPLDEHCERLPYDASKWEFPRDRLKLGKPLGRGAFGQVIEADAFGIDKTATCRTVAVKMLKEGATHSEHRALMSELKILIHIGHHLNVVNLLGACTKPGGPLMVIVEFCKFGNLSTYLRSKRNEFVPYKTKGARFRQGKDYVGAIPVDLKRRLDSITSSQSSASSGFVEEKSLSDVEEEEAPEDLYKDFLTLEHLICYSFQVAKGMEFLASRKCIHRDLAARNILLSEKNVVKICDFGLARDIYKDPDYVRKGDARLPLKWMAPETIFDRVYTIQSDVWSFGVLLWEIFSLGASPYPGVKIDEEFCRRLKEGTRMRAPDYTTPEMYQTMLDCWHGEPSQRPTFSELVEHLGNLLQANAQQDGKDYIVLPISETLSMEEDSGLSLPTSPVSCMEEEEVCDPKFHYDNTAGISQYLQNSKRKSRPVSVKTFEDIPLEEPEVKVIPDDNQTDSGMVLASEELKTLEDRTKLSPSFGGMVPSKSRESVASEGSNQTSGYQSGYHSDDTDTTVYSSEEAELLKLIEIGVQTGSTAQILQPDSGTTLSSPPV
Description: as §3

MARK1(h) = MARK1(h) (Homo sapiens, UniProt Q9P0L2); test: Kinase Profiler; format: biochemical
Description: as §3

MEKK3(h) = MEKK3(h) (Homo sapiens, UniProt Q99759); test: Kinase Profiler; format: biochemical
Description: as §3

MKK4(m) = MKK4(m) (Mus musculus, UniProt P47809); test: Kinase Profiler; format: biochemical
MKK4(m), sequence (P47809 2-397 limits assumed): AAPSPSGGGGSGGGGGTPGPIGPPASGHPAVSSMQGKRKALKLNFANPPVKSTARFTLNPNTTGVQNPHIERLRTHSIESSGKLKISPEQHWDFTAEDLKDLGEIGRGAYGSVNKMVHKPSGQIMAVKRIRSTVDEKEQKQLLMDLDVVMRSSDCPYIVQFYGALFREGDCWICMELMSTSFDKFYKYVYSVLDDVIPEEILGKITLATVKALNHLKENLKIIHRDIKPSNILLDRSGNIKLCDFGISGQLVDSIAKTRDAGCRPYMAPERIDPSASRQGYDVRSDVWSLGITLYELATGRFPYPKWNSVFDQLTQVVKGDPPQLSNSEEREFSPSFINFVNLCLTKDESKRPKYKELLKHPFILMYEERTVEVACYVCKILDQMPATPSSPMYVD
Description: as §3

mTOR(h) = mTOR(h) (Homo sapiens, UniProt P42345); test: Kinase Profiler; format: biochemical
Description: as §3

NEK9(h) = NEK9(h) (Homo sapiens, UniProt Q8TD19); test: Kinase Profiler; format: biochemical
Description: as §3

PDGFRα(h) = PDGFRα(h) (Homo sapiens, UniProt P16234); test: Kinase Profiler; format: biochemical
PDGFRα(h), sequence (P16234 24-1089): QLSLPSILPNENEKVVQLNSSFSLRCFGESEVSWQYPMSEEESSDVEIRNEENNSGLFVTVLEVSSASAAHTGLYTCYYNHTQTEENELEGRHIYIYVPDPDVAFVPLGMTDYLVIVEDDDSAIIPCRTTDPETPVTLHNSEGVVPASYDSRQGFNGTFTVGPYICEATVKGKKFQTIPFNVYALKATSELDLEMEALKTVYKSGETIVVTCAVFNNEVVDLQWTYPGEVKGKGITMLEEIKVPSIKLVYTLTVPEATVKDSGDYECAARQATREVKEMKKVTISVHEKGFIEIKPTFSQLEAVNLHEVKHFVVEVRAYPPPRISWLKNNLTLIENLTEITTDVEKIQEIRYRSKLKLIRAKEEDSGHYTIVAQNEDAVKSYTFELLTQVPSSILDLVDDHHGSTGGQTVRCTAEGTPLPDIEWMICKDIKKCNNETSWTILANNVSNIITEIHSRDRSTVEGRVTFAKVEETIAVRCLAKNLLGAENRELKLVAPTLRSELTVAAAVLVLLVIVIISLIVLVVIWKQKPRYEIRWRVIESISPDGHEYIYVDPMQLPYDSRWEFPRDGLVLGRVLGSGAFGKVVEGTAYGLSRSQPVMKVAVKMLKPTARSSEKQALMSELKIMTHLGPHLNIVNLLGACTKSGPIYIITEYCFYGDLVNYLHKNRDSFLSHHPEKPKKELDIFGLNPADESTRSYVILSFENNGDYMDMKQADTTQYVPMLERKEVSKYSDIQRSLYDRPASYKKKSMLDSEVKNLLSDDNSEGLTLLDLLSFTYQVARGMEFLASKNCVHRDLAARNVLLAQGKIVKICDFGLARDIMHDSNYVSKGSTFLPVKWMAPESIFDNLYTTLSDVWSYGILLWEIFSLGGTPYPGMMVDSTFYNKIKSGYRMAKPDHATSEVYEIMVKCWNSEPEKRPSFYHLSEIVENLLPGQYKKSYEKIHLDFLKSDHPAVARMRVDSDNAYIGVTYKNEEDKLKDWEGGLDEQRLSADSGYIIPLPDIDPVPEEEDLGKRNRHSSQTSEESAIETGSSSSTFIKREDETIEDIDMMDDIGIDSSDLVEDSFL
Description: as §3

Pim-1(h) = Pim-1(h) (Homo sapiens, UniProt P11309); test: Kinase Profiler; format: biochemical
Description: as §2

PKD2(h) = PKD2(h) (Homo sapiens, UniProt Q9BZL6); test: Kinase Profiler; format: biochemical
Description: as §3

PKR(h) = PKR(h) (Homo sapiens, UniProt P19525); test: Kinase Profiler; format: biochemical
Description: as §3

TrkB(h) = TrkB(h) (Homo sapiens, UniProt Q16620); test: Kinase Profiler; format: biochemical
Description: as §3

ULK3(h) = ULK3(h) (Homo sapiens, UniProt Q6PHR2); test: Kinase Profiler; format: biochemical
Description: as §2

PI3K (p110d/p85a)(h) = PI3K (p110d/p85a)(h) (Homo sapiens, UniProt O00329); test: Kinase Profiler; format: biochemical
Description: as §2

[4] = molecular target: PI3K (p110a(E542K)/p85a)(h) (Homo sapiens, UniProt P42336, E542K); test: Kinase Profiler; format: biochemical
Description: as §3

PI3K e (p110a/p65a)(h) = PI3K e (p110a/p65a)(h) (Homo sapiens, UniProt P42336); test: Kinase Profiler; format: biochemical
PI3K e (p110a/p65a)(h), sequence (P42336 whole entry): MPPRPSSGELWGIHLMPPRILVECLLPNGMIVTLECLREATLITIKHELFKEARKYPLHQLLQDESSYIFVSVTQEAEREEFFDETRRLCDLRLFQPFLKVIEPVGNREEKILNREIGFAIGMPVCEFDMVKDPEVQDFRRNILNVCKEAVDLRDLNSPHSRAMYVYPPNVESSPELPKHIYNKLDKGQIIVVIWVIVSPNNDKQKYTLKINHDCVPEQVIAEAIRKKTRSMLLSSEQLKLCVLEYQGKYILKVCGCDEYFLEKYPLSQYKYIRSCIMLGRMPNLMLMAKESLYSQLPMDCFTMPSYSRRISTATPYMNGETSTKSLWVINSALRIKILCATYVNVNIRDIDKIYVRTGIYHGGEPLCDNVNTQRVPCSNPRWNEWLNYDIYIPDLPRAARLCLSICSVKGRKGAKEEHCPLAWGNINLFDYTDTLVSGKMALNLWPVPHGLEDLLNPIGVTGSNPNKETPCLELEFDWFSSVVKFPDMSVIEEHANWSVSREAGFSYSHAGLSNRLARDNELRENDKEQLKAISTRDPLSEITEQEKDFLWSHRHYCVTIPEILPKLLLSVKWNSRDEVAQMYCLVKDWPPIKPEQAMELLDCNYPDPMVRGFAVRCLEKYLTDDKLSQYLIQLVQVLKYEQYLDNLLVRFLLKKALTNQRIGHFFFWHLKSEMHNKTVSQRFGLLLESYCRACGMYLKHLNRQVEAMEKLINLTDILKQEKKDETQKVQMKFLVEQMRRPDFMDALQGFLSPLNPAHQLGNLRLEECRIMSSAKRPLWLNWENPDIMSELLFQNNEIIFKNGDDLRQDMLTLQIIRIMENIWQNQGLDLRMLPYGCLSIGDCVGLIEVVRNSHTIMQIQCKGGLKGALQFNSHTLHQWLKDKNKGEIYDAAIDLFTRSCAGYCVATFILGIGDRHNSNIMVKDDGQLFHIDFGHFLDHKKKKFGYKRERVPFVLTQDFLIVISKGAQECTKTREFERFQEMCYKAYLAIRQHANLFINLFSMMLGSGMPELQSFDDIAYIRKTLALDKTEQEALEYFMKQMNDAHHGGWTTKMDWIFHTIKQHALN
PI3K e (p110a/p65a)(h), sequence (P27986 1-571 partner limits assumed): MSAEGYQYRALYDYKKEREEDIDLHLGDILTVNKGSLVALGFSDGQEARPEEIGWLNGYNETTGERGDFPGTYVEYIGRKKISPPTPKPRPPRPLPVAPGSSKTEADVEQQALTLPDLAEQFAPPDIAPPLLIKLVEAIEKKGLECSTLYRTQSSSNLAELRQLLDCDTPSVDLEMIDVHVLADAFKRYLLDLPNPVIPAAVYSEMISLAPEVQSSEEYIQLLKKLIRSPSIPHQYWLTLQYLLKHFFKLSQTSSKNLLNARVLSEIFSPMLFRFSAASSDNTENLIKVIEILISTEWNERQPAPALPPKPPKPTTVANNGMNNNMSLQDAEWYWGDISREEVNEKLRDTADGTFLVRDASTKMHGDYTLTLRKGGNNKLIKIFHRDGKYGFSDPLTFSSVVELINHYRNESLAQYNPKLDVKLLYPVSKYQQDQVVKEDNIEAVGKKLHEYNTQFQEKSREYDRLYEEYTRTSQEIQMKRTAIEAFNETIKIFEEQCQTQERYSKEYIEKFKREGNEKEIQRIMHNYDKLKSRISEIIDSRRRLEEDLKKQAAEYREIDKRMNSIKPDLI
Description: as §3

RAC1 = RAC1 (Homo sapiens, UniProt P63000); test: Surface plasmon resonance; format: binding; design: purchased Cytoskeleton RH01
Description: SPR immobilization was performed at 25°C. RAC1, RHOA and CDC42 purified proteins (respectively […] and CD01, Cytoskeleton) were diluted to 5 μg/mL in Na^+ acetate buffer (pH 5.0) and injected into sensor chip CM5 (GE Healthcare) in a Biacore T200 (GE Healthcare) that was activated with NHS/EDC buffer. Approximately 5,000 response units of the purified protein were immobilized on the biosensor chip. Biosensor chips were blocked by an injection of 1 mM ethanolamine (pH 8.5). SPR analysis was performed at 25°C in HBSEP running buffer (5% DMSO) with or without EDTA (20 mM). A41 compound was injected over the RAC1, RHOA or CDC42 functionalized surface in concentration range from 0 to 25μM. Association and dissociation phases were monitored during 60s and 300s, respectively.

Q: For `COc1ccc(OC)c(NS(=O)(=O)c2ccc(NC(=O)CCSc3ccc(C)cc3)cc2)c1` [Compound A41], which “B cells, Mean (SD)” value (White blood cell formula; 25 mg/kg/d, n=5) is on record?
A: The value was 11.62 (1.58) % of leukocytes.

Q: And the “Macrophages, Mean (SD)” value (White blood cell formula; 25 mg/kg/d, n=5)?
A: Its value is 2.46 (2.34) % of leukocytes.

Q: And the “Monocytes, Mean (SD)” value (White blood cell formula; 25 mg/kg/d, n=5)?
A: The value was 0.86 (0.57) % of leukocytes.

Q: And the “NK cells, Mean (SD)” value (White blood cell formula; 25 mg/kg/d, n=5)?
A: The value was 0.40 (0.22) % of leukocytes.

Q: What about the “Neutrophiles, Mean (SD)” value (White blood cell formula; 25 mg/kg/d, n=5) of the same molecule?
A: Its value is 4.19 (6.24) % of leukocytes.

Q: What about the “T cells, Mean (SD)” value (White blood cell formula; 25 mg/kg/d, n=5) of the same molecule?
A: The value was 52.20 (2.11) % of leukocytes.

Q: And the “white cell blood counts” value (White blood cell formula; chronic A41 treatment, immunocompetent mice)?
A: The value was “not accompanied by changes in white cell blood counts”.

Q: What about the “% inh.” value (Cannabinoid CB1) of the same molecule?
A: The value was 81%.

Q: And the “% inh.” value (GABAB1A)?
A: The value was -6%.

Q: And the “% inh.” value [1]?
A: Its value is 19%.

Q: And the “% inh.” value [2]?
A: Its value is 14%.

Q: And the “% inh.” value (Transporter, GABA)?
A: Its value is -4%.

Q: And the “% inh.” value [3]?
A: Its value is 36%.

Q: And the “Activity(%)” value (ARK5(h))?
A: Its value is 106%.

Q: What about the “Activity(%)” value (Bmx(h)) of the same molecule?
A: Its value is 124%.

Q: And the “Activity(%)” value (BrSK1(h))?
A: The value was 86%.

Q: What about the “Activity(%)” value (CaMKK1(h)) of the same molecule?
A: The value was 95%.

Q: And the “Activity(%)” value (Cdc7/cyclinB1(h))?
A: Its value is 92%.

Q: And the “Activity(%)” value (CLIK1(h))?
A: The value was 112%.

Q: What about the “Activity(%)” value (DYRK1A(h)) of the same molecule?
A: Its value is 93%.

Q: And the “Activity(%)” value (GSK3α(h))?
A: Its value is 90%.

Q: And the “Activity(%)” value (Haspin(h))?
A: Its value is 116%.

Q: And the “Activity(%)” value (HIPK2(h))?
A: Its value is 81%.

Q: What about the “Activity(%)” value (Itk(h)) of the same molecule?
A: Its value is 78%.

Q: And the “Activity(%)” value (KDR(h))?
A: Its value is 113%.

Q: What about the “Activity(%)” value (MARK1(h)) of the same molecule?
A: The value was 110%.

Q: What about the “Activity(%)” value (MEKK3(h)) of the same molecule?
A: The value was 109%.

Q: What about the “Activity(%)” value (MKK4(m)) of the same molecule?
A: Its value is 109%.

Q: What about the “Activity(%)” value (mTOR(h)) of the same molecule?
A: Its value is 101%.

Q: What about the “Activity(%)” value (NEK9(h)) of the same molecule?
A: The value was 107%.

Q: What about the “Activity(%)” value (PDGFRα(h)) of the same molecule?
A: Its value is 92%.

Q: And the “Activity(%)” value (Pim-1(h))?
A: The value was 95%.

Q: What about the “Activity(%)” value (PKD2(h)) of the same molecule?
A: The value was 100%.

Q: And the “Activity(%)” value (PKR(h))?
A: The value was 101%.

Q: What about the “Activity(%)” value (TrkB(h)) of the same molecule?
A: The value was 108%.

Q: And the “Activity(%)” value (ULK3(h))?
A: Its value is 97%.

Q: And the “Activity(%)” value (PI3K (p110d/p85a)(h))?
A: Its value is 100%.

Q: What about the “Activity(%)” value [4] of the same molecule?
A: Its value is 105%.

Q: What about the “Activity(%)” value (PI3K e (p110a/p65a)(h)) of the same molecule?
A: Its value is 102%.

Q: And the “binding to RAC1” value (RAC1; in the presence of 20 mM EDTA)?
A: The value was “strongly increased”.

Q: And the Kd (RAC1; purified RAC1-GDP, without EDTA)?
A: The Kd was 30 nM.
